“Also recorded” adds a separate entry of the source.
Legend:
mammals = settings: cited from earlier work; for neuronal toxicity: several months after the treatment
male Sprague-Dawley rats = test: Near infrared fluorescence (NIRF) imaging of lymph nodes after penile intracavernous ICG injection; assay type: in vivo, rat
Method: Twenty two 22 male Sprague-Dawley rats received penile intracavernous ICG injections (20 μl of 0.25 mg/ml). […] A Novadaq intraoperative NIRF imaging system (SPY®) was used for macroscopic fluorescence imaging and an Olympus NIRF microscope IX 70 (Olympus America, Inc., Center Valley, Pa.) was used for histology. All animals were anesthetized and shaved before imaging. All visualized nodes were sent for NIR microscopy and haematoxylin and eosin (H&E) staining for histological examination.
More than one pair of sentinel lymph nodes were visualized in 2 rats. […] Lymphatic channels were seen leading to sentinel lymph nodes at 6, 12 and 24 hours (FIG. 1). […] (FIG. 1). […] Thus, NIR fluorescence using ICG facilitates both pre- and intraoperative identification of the first site of penile lymphatic drainage. The methods of the invention should therefore improve the accuracy of surgical staging in patients with penile carcinomas.

[1] = 806 nm excitation light; cited from earlier work
[2] = cited from earlier work

Question: Which toxicity in mammals (mammals) does the source give for N=C(N)c1ccc(/C=C/c2ccc(C(=N)N)cc2O)cc1 [Fluorogold] here?
Answer: low evidence of toxicity

Question: What about the neuronal toxicity (mammals) of the same molecule?
Answer: without evidence of neuronal toxicity

Question: What does the source list for CC1(C)C(/C=C/C=C/C=C/C=C2\N(CCCCS(=O)(=O)O)c3ccc4ccccc4c3C2(C)C)=[N+](CCCCS(=O)(=O)[O-])c2ccc3ccccc3c21 [ICG, indocyanine green]?
Answer: lymphatic channels leading to sentinel lymph nodes (male Sprague-Dawley rats; 6, 12 and 24 hours post-injection): seen; how long lymph nodes could be seen through the body wall after injection (male Sprague-Dawley rats; animal studies): for days; confirmation of lymph nodes by NIR microscopy and conventional histology (male Sprague-Dawley rats; rats): All lymph nodes were confirmed; visualization of inguinal and iliac sentinel lymph nodes with NIRF (male Sprague-Dawley rats; rats): clearly visualized; intraoperative confirmation of preoperative localization of inguinal nodes (male Sprague-Dawley rats; rats, intraoperative NIRF): confirmed the preoperative localization of the inguinal nodes; also recorded: confirmed preoperative localization of all inguinal nodes; emitted light wavelength [1]: 830 nm; toxicity in mammals (mammals): low evidence of toxicity; neuronal toxicity (mammals): without evidence of neuronal toxicity; enterohepatic recirculation ([2]; in vivo): does not undergo enterohepatic recirculation; metabolism in the body ([2]; in vivo): not metabolized; reabsorption from the intestine ([2]; in vivo): not reabsorbed; route of excretion ([2]; in vivo): excreted exclusively by the liver; distribution after intravenous injection ([2]; normal vascular permeability): remains intravascular

Question: With CC1(C)C(/C=C/C=C/C=C/C=C2\N(CCCCS(=O)(=O)[O-])c3ccc4ccccc4c3C2(C)C)=[N+](CCCCS(=O)(=O)[O-])c2ccc3ccccc3c21.[Na+] [indocyanine green (ICG)] as the molecule, how does the “shortest time after injection to ability to visualize the lymph nodes” value (male Sprague-Dawley rats; animal model) read?
Answer: 10 min

Question: Which results are given for Fast Blue?
Answer: toxicity in mammals (mammals): low evidence of toxicity; neuronal toxicity (mammals): without evidence of neuronal toxicity
